What was measured:
Type in all cases: cell-based, Saccharomyces cerevisiae W303
[1] = test system: promoter of yeast gene YOR382w; details: for Fluorescence: cells SC-YOR382W-pQBI, 2 hours incubation with the substance at the concentration printed in its row (column Concentrations), GFP fluorescence vs control without chemical
Source text: (§1) The inventors of the present application understood that the induction of certain yeast genes by toxic substances is caused by the activation of the promoters of the genes by the toxic substances. Thus, the inventors prepared a vector that comprised a polynucleotide sequence comprising the promoter of the yeast gene, which sequence is operably linked to a polynucleotide encoding a marker protein; and transformed yeast cells with the vector. […] The working examples hereinafter illustrate the preparation of such vectors, transformation of yeast cells by use of said vectors, and the detection of toxic substances by use of the transformed cells.
(§2) Promoter assay is a method for determining variations of the level of intracellular genes without destroying cells on the basis of the level of expressed marker genes instead of the expressed mRNA. The gene selected to detect a chemical substance is expressed in the absence of chemical substances, and thus a marker protein also occurs in the absence of chemical substances. In the method according to the present invention, the behavior of yeast genes on the addition of test materials is determined on the basis of the level of expressed marker protein so that the presence or the absence, and the kind of toxic chemical substances are predicted. Thus, it is desired that the production of marker proteins is lower in the absence of chemical substances, and the production of marker proteins is higher in the presence of chemical substances.
(§3) Type YEp shuttle vector pYES2 (pYES2, Cat no: V825-20, Invirtogen Corporation, USA), which can be replicated both in E. coli. and yeast was used as vector (R. W. Old, S. B. Primrose Principles of Gene Manipulation 5th Ed., BAIFUKAN CO., LTD, pp138-165, pp.234-263, 2000). The portion of vector pQBI 63 (Cat no.54-0082, Wako Pure Chemical Industries, Ltd.) corresponding to a marker protein GFP was used as the polynucleotide encoding GFP (SEQ ID No: 6). First, the GFP polynucleotide was inserted into the multiple cloning sites of pYES2 to give a vector. Thereafter, the GAL1 promoter of pYES2 was replaced with the polynucleotide comprising the promoter sequence of the intended yeast gene YOR382w (SEQ ID No: 3) to give an intended plasmid vector. Suitable restriction enzymes were selected, and the insertion of the polynucleotide comprising GFP and the promoter sequence was conducted.
(§4) Next, the yeast Saccharomyces cerevisiae W303 was transformed with the resultant plasmid vector according to the following procedures: • 1) Incubating the yeast Saccharomyces cerevisiae W303 in 200 ml of SD medium under shaking until OD 660 reaches 0.5; • 2) Suspending the collected cells in 5 ml of TE-buffer; • 3) Adding 250 μL of 2.5M lithium acetate; • 4) Dispending each 300 μl, adding 10 μl of above plasmid vector thereto, then incubating the suspensions at 30° C. for 30 minutes; • 5) Adding 700 μl of 50% PEG4000, and incubating the mixture under shaking at 30° C. for 60 minutes; • 6) Giving heat shock (42° C., 5 minutes), and then immediately cooling the mixture; • 7) Washing the mixture twice with 1M sorbitol; and • 8) Seeding it on agar plates made of minimum essential medium.
(§5) The cells of SC-YOR382W-pQBI as prepared in Example 4 were contacted to one of the following compounds. The yeast cells SC-YOR382W-pQBI were incubated at 25° C. in SD medium (Yeast nitrogen base without amino acids (Difco 0919-15)+glucose+amino acids (adenine, histidine, tryptophan)). One of toxic chemical substances as shown below was added to the cells at logarithmic growth phase, and then the cells were further incubated for two hours.

[2] = test system: promoter of yeast gene YKL071w; details: SC-YKL071W-pQBI cells, 25° C., two hours; each substance at the concentration given
Source text: as §1, §2
as §3, with “YKL071w” for “YOR382w”, “1)” for “3)”
as §4
as §5, with “SC-YKL071W-pQBI” for “SC-YOR382W-pQBI”, “2” for “4”

[3] = test system: promoter of yeast gene YLR303w
Source text: as §1, §2
as §3, with “YLR303w” for “YOR382w”, “5)” for “3)”
as §4
as §5, with “SC-YCR303W-pQBI” for “SC-YOR382W-pQBI”, “6” for “4”

manganese ethylenebis(dithiocarbamate) [(8)]
expression of GFP ([1]; SC-YOR382W-pQBI cells, summary of Table 12): induced the expression of GFP
Fluorescence [1]: ++ (2% or more)
Fluorescens [2]: − (the number of the cells having a higher fluorescence than the control was under 1%)
expression of GFP ([3]; SC-YCR303W-pQBI cells (so in the source), summary of Table 14): induced the expression of GFP

γ-hexachlorocyclohexane [(7)]
Fluorescence [1]: − (the number of the cells having a higher fluorescence than the control was under 1%)
Fluorescens [2]: − (the number of the cells having a higher fluorescence than the control was under 1%)
Fluorescence ([3]; cells SC-YCR303W-pQBI (so in the source), 2 hours incubation with the substance at the concentration printed in its row (column Concentrations), GFP fluorescence vs control without chemical): − (the number of the cells having a higher fluorescence than the control was under 1%)
